What was measured:
Format in all cases: biochemical
Conditions in all cases: compound at 1 μM
PKR R532W = PKR R532W (Homo sapiens, UniProt P30613, R532W); assay: PKR R532W Single Point Percent Activation Assay
Method: PKR R532W Single Point Percent Activation Assay
(§1) A compound described herein was diluted with DMSO and tested at 1 μM concentration. The enzyme was diluted in 1× Buffer: (100 mM KCl, 50 mM Tris 7.5, 5 mM MgCl2, 1 mM DTT, 0.03% BSA). 2 μL of compound solution was first added into wells, and then 180 μL of enzyme solution was added. Assays were assembled except for ADP, and plates were stored for 60 minutes at RT. 20 μL ADP was added to start the assay and assay output was evaluated using OD340 at SpectraMax. The assay was run at room temperature.
PKR R532W (100 ng/well), Tris pH 7.5 (50 mM), KCl (100 mM), MgCl2 (5 mM), ADP (0.36 mM), PEP (0.1 mM), NADH (180 μM), LDH (0.5 units, Sigma 59023), DTT (1 mM) and BSA (0.03%).

PKR wt = PKR wt (Homo sapiens, UniProt P30613); assay: PKR Wide Type Single Point Percent Activation Assay
Chain of PKR wt (P30613 whole entry): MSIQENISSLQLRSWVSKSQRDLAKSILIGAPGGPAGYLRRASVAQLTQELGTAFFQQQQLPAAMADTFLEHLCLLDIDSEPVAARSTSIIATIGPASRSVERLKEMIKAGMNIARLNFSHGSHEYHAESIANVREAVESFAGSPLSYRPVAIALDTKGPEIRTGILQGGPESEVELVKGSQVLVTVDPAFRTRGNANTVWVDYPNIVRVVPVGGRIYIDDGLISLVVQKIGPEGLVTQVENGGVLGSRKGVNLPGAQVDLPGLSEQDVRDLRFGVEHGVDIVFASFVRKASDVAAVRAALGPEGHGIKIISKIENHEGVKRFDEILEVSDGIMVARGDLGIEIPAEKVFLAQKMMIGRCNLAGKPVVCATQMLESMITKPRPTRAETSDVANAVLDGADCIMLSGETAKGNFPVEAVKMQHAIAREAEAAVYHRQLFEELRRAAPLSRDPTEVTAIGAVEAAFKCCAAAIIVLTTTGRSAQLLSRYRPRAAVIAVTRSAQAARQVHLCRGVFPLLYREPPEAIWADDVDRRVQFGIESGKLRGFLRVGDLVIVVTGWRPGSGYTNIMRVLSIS
Method: PKR Wide Type Single Point Percent Activation Assay
as §1
PKR wt (100 ng/well), Tris pH 7.5 (50 mM), KCl (100 mM), MgCl2 (5 mM), ADP (0.48 mM), PEP (0.15 mM), NADH (180 μM), LDH (0.5 units, Sigma 59023), DTT (1 mM) and BSA (0.03%).

PKR R510Q = PKR R510Q (Homo sapiens, UniProt P30613, R510Q); assay: PKR R510Q Single Point Percent Activation Assay
Chain of PKR R510Q (P30613 whole entry R510Q): as the sequence (P30613 whole entry) above, with R510Q counted along it
Method: PKR R510Q Single Point Percent Activation Assay
as §1
PKR R510Q (40 ng/well), Tris pH 7.5 (50 mM), KCl (100 mM), MgCl2 (5 mM), ADP (0.2 mM), PEP (0.11 mM), NADH (180 μM), LDH (0.5 units, Sigma 59023), DTT (1 mM) and BSA (0.03%).

PKR T384W = PKR T384W Single Point Percent Activation Assay
Method: PKR T384W Single Point Percent Activation Assay
as §1, with “180 μL enzyme solution” for “180 μL of enzyme solution”
PKR T384W soluble (300 ng/well), Tris pH 7.5 (50 mM), KCl (100 mM), MgCl2 (5 mM), ADP (0.08 mM), PEP (0.23 mM), NADH (180 μM), LDH (0.5 units, Sigma 59023), DTT (1 mM) and BSA (0.03%).

Chain of PKR R532W (P30613 whole entry R532W): as the sequence (P30613 whole entry) above, with R532W counted along it

SMILES	% Act. R532W (PKR R532W)	% Act. WT (PKR wt)	% Act. R510Q (PKR R510Q)	% Act. T384W (PKR T384W)
O=C1Nc2cc(S(=O)(=O)Nc3cccc(F)c3)ccc2NC1Cc1ccccc1 (stereo not shown)	B (a % activation at 1 μM of from 101 to 500)	B (a % activation at 1 μM of from 101 to 500)	B (a % activation at 1 μM of from 101 to 500)	B (a % activation at 1 μM of from 101 to 500)
O=C1Oc2ccc(S(=O)(=O)Nc3ccc(F)c(Cl)c3)cc2CN1Cc1ccccc1	B (a % activation at 1 μM of from 101 to 500)	B (a % activation at 1 μM of from 101 to 500)	B (a % activation at 1 μM of from 101 to 500)	B (a % activation at 1 μM of from 101 to 500)
O=C1CN(Cc2ccccc2)c2cc(S(=O)(=O)Nc3cccc(Cl)c3)ccc2O1	A (a % activation at 1 μM of from 1 to 100)	A (a % activation at 1 μM of from 1 to 100)	B (a % activation at 1 μM of from 101 to 500)	A (a % activation at 1 μM of from 1 to 100)
CN1c2ccc(S(=O)(=O)Nc3cccc(F)c3)cc2NC(=O)C1Cc1ccccc1 (stereo not shown)	B (a % activation at 1 μM of from 101 to 500)	B (a % activation at 1 μM of from 101 to 500)	B (a % activation at 1 μM of from 101 to 500)	B (a % activation at 1 μM of from 101 to 500)
CN1C(=O)COc2ccc(S(=O)(=O)Nc3ccc(F)c(Cl)c3)cc21	B (a % activation at 1 μM of from 101 to 500)	B (a % activation at 1 μM of from 101 to 500)	B (a % activation at 1 μM of from 101 to 500)	B (a % activation at 1 μM of from 101 to 500)
CN1c2cc(S(=O)(=O)Nc3cccc(F)c3)ccc2OC(=O)[C@@H]1Cc1ccccc1	A (a % activation at 1 μM of from 1 to 100)	B (a % activation at 1 μM of from 101 to 500)	B (a % activation at 1 μM of from 101 to 500)	B (a % activation at 1 μM of from 101 to 500)
O=C(c1c(F)cccc1F)N1CCN(S(=O)(=O)c2ccc3c(c2)OCCO3)CC1	B (a % activation at 1 μM of from 101 to 500)	B (a % activation at 1 μM of from 101 to 500)	B (a % activation at 1 μM of from 101 to 500)	B (a % activation at 1 μM of from 101 to 500)
